Test results reported in patent US20250228239A1, “MOLECULES HAVING PESTICIDAL UTILITY, AND INTERMEDIATES, COMPOSITIONS, AND PROCESSES, RELATED THERETO” (priority 2024, published 2025).

Tests used:
Type in all cases: in vivo
[1] = test system: Beet Armyworm (Spodoptera exigua, LAPHEG); test: Bioassays on Beet Armyworm (BAW), 128-well diet tray assay; conditions: Spodoptera exigua; Table ABC: Biological Results; species BAW; read-out: BAW
Procedure, shortened: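 Test molecule was dissolved in 90:10 acetone-water and applied at 50 μg/cm^2 onto artificial diet in eight wells, then dried. Second instar larvae, one to five per well, were added, and trays were kept vented at 25° C. with a 14:10 photoperiod for five to seven days before mortality was recorded.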

[2] = test system: Cabbage Looper (Trichoplusia ni, TRIPNI); test: Bioassays on Cabbage Looper (CL), 128-well diet tray assay; conditions: Trichoplusia ni; Table ABC: Biological Results; species CL; read-out: CL
Procedure, shortened: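 One to five second-instar larvae per well on artificial diet surface-treated with 50 μg/cm^2 test molecule (applied in 90:10 acetone-water, dried). Held 5–7 days at 25° C, 14:10 light-dark; percent mortality recorded per well and averaged over eight wells.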

[3] = test system: Yellow Fever Mosquito (Aedes aegypti, AEDSAE); conditions: Table ABC: Biological Results; species YFM
Procedure, shortened: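 Larvae ~1 day old, in liver powder/water; compound from 4000 ppm DMSO stock diluted with water/acetone (90:10); 6 reps; lidded, RT, 3 d; mortality scored per well, rated.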

Row | Structure (SMILES) | pest or weed control at 50 µg/cm2 [1] [%] | pest or weed control at 50 µg/cm2 [2] [%] | YFM [3]
1 | CC(=O)Nc1ccc(NC(=O)c2cc(NC(=O)[C@H]3[C@H](c4ccc(Cl)c(Cl)c4)C3(Cl)Cl)ccc2Cl)c(C)c1 (relative stereo) [F1059, trans-N-(4-Acetamido-2-methylphenyl)-2-chloro-5-(2,2-dichloro-3-(3,4-dichlorophenyl)cyclopropane-1-carboxamido)benzamide] | 50 to 100 | 50 to 100 | A (80–100)
2 | Cc1cc(NC(=O)C(F)(F)F)ccc1NC(=O)c1cc(NC(=O)[C@H]2[C@H](c3ccc(Cl)c(Cl)c3)C2(Cl)Cl)ccc1Cl (relative stereo) [F1061, trans-2-Chloro-5-(2,2-dichloro-3-(3,4-dichlorophenyl)cyclopropane-1-carboxamido)-N-(2-methyl-4-(2,2,2-trifluoroacetamido)phenyl)benzamide] | 50 to 100 | 50 to 100 | A (80–100)
3 | Cc1cc(NC(=O)C(F)F)ccc1NC(=O)c1cc(NC(=O)[C@H]2[C@H](c3ccc(Cl)c(Cl)c3)C2(Cl)Cl)ccc1Cl (relative stereo) [F1062, trans-2-Chloro-5-(2,2-dichloro-3-(3,4-dichlorophenyl)cyclopropane-1-carboxamido)-N-(4-(2,2-difluoroacetamido)-2-methylphenyl)benzamide] | 50 to 100 | 50 to 100 | A (80–100)
4 | Cc1cc([C@H]2[C@H](C(=O)Nc3ccc(Cl)c(C(=O)Nc4ccc(F)cc4F)c3)C2(Cl)Cl)cc(C(F)(F)F)c1F (relative stereo) [F1066, trans-2-Chloro-5-(2,2-dichloro-3-(4-fluoro-3-methyl-5-(trifluoromethyl)phenyl)cyclopropane-1-carboxamido)-N-(2,4-difluorophenyl)benzamide] | 50 to 100 | 50 to 100 | A (80–100)
5 | Cc1cc([C@@H]2[C@H](C(=O)Nc3ccc(Cl)c(C(=O)Nc4ccc(F)cc4F)c3)C2(Cl)Cl)cc(C(F)(F)F)c1F (relative stereo) [F1067, cis-2-Chloro-5-(2,2-dichloro-3-(4-fluoro-3-methyl-5-(trifluoromethyl)phenyl)cyclopropane-1-carboxamido)-N-(2,4-difluorophenyl)benzamide] | 50 to 100 | 50 to 100 | A (80–100)
6 | CC(C)(C)OC(=O)Nc1c(F)ccc(NC(=O)c2cc(NC(=O)[C@H]3[C@H](c4cc(Cl)cc(Cl)c4)C3(F)F)ccc2Cl)c1F (relative stereo) [F1070, trans-tert-Butyl (3-(2-chloro-5-(3-(3,5-dichlorophenyl)-2,2-difluorocyclopropane-1-carboxamido)benzamido)-2,6-difluorophenyl)carbamate] | 50 to 100 | 50 to 100 | A (80–100)
7 | CNc1c(F)ccc(N(C)C(=O)c2cc(NC(=O)[C@H]3[C@H](c4ccc(Cl)c(Cl)c4)C3(Cl)Cl)ccc2Cl)c1F (relative stereo) [F1071, trans-2-Chloro-5-(2,2-dichloro-3-(3,4-dichlorophenyl)cyclopropane-1-carboxamido)-N-(2,4-difluoro-3-(methylamino)phenyl)-N-methylbenzamide] | 50 to 100 | 50 to 100 | A (80–100)
8 | Nc1c(F)ccc(NC(=O)c2cc(NC(=O)[C@H]3[C@H](c4cc(Br)cc(C(F)(F)F)c4)C3(Cl)Cl)ccc2Cl)c1F (relative stereo) [F1075, trans-N-(3-Amino-2,4-difluorophenyl)-5-(3-(3-bromo-5-(trifluoromethyl)phenyl)-2,2-dichlorocyclopropane-1-carboxamido)-2-chlorobenzamide] | 50 to 100 | 50 to 100 | A (80–100)
9 | CC(C)(C)OC(=O)Nc1c(F)ccc(NC(=O)c2cc(NC(=O)[C@H]3[C@H](c4ccc(Cl)c(C(F)(F)F)c4)C3(Cl)Cl)ccc2Cl)c1F (relative stereo) [F1077, trans-tert-Butyl-(3-(2-chloro-5-(2,2-dichloro-3-(4-chloro-3-(trifluoromethyl)phenyl)cyclopropane-1-carboxamido)benzamido)-2,6-difluorophenyl)carbamate] | 50 to 100 | 50 to 100 | A (80–100)
10 | CC(C)(C)OC(=O)Nc1c(F)ccc(NC(=O)c2cc(NC(=O)[C@H]3[C@H](c4ccc(F)c(C(F)(F)F)c4)C3(Cl)Cl)ccc2Cl)c1F (relative stereo) [F1078, trans-tert-Butyl-(3-(2-chloro-5-(2,2-dichloro-3-(4-fluoro-3-(trifluoromethyl)phenyl)cyclopropane-1-carboxamido)benzamido)-2,6-difluorophenyl)carbamate] | 50 to 100 | 50 to 100 | A (80–100)
11 | CC(=O)OCN(C(=O)c1cc(NC(=O)[C@H]2[C@H](c3cc(Cl)cc(Cl)c3)C2(Cl)Cl)ccc1Cl)c1ccc(F)cc1C#N (relative stereo) [F1084, trans-(2-Chloro-N-(2-cyano-4-fluorophenyl)-5-(2,2-dichloro-3-(3,5-dichlorophenyl)cyclopropane-1-carboxamido)benzamido)methyl acetate] | 50 to 100 | 50 to 100 | A (80–100)
12 | O=C(Nc1ccc(F)cc1F)c1cc(NC(=O)[C@H]2[C@H](c3ccc(I)cc3)C2(Cl)Cl)ccc1Cl (relative stereo) [F1087, trans-2-Chloro-5-(2,2-dichloro-3-(4-iodophenyl)cyclopropane-1-carboxamido)-N-(2,4-difluorophenyl)benzamide] | 50 to 100 | 50 to 100 | A (80–100)
13 | O=C(Nc1ccc(F)cc1F)c1cc(NC(=O)[C@H]2[C@H](c3cccc(I)c3)C2(Cl)Cl)ccc1Cl (relative stereo) [F1088, trans-2-Chloro-5-(2,2-dichloro-3-(3-iodophenyl)cyclopropane-1-carboxamido)-N-(2,4-difluorophenyl)benzamide] | 50 to 100 | 50 to 100 | A (80–100)
14 | O=C(Nc1ccc(F)cc1F)c1cc(NC(=O)[C@H]2[C@H](c3cccc(S(F)(F)(F)(F)F)c3)C2(Cl)Cl)ccc1Cl (relative stereo) [F1090, trans-2-Chloro-5-(2,2-dichloro-3-(3-(pentafluoro-λ^6-sulfanyl)phenyl)cyclopropane-1-carboxamido)-N-(2,4-difluorophenyl)benzamide] | 50 to 100 | 50 to 100 | A (80–100)
15 | O=C(Nc1ccc(F)cc1F)c1cc(NC(=O)[C@H]2[C@@H](c3cc(F)cc(Br)c3F)C2(Cl)Cl)ccc1Cl (relative stereo) [F1094, cis-5-(3-(3-Bromo-2,5-difluorophenyl)-2,2-dichlorocyclopropane-1-carboxamido)-2-chloro-N-(2,4-difluorophenyl)benzamide] | 50 to 100 | 50 to 100 | A (80–100)
16 | COc1ccc(CNc2c(F)ccc(NC(=O)c3cc(NC(=O)[C@H]4[C@H](c5ccc(F)c(C(F)(F)F)c5)C4(Cl)Cl)ccc3Cl)c2F)cc1 (relative stereo) [F1096, trans-2-Chloro-5-(2,2-dichloro-3-(4-fluoro-3-(trifluoromethyl)phenyl)cyclopropane-1-carboxamido)-N-(2,4-difluoro-3-((4-methoxybenzyl)amino)phenyl)benzamide] | 50 to 100 | 50 to 100 | A (80–100)
17 | O=C(Nc1ccc(F)cc1)c1c(F)ccc(NC(=O)[C@H]2[C@H](c3ccc(F)c(Cl)c3)C2(Cl)Cl)c1F (relative stereo) [F1100, trans-3-(2,2-Dichloro-3-(3-chloro-4-fluorophenyl)cyclopropane-1-carboxamido)-2,6-difluoro-N-(4-fluorophenyl)benzamide] | 50 to 100 | 50 to 100 | A (80–100)
18 | O=C(Nc1ccccc1)c1c(Cl)ccc(NC(=O)[C@H]2[C@H](c3ccc(F)c(Cl)c3)C2(Cl)Cl)c1Cl (relative stereo) [F1104, trans-2,6-Dichloro-3-(2,2-dichloro-3-(3-chloro-4-fluorophenyl)cyclopropane-1-carboxamido)-N-phenylbenzamide] | 50 to 100 | 50 to 100 | A (80–100)
19 | CN(C(=O)c1cc(NC(=O)[C@H]2[C@H](c3ccc(F)c(C(F)(F)F)c3)C2(Cl)Cl)ccc1Cl)c1ccc(F)c(N)c1F (relative stereo) [F1112, trans-N-(3-amino-2,4-difluorophenyl)-2-chloro-5-(2,2-dichloro-3-(4-fluoro-3-(trifluoromethyl)phenyl)cyclopropane-1-carboxamido)-N-methylbenzamide] | 50 to 100 | 50 to 100 | A (80–100)
20 | C=CCN(C(=O)c1cc(NC(=O)[C@H]2[C@H](c3ccc(F)c(C(F)(F)F)c3)C2(Cl)Cl)ccc1Cl)c1ccc(F)c(N)c1F (relative stereo) [F1113, trans-N-Allyl-N-(3-amino-2,4-difluorophenyl)-2-chloro-5-(2,2-dichloro-3-(4-fluoro-3-(trifluoromethyl)phenyl)cyclopropane-1-carboxamido)benzamide] | 50 to 100 | 50 to 100 | A (80–100)
